Data reported in patent US20200155579A1, “Process for Hydrating Cyclophosphamide Freeze-Dried Composition and Product Thereof” (priority 2018, published 2020).

Tests used:
[1] = CPP content determination (HPLC); assay type: physicochemical; details: raw material, initial
Procedure: Preparation of sample stock solution (1 mg/ml anhydrous Cyclophosphamide): an appropriate amount of water is charged into sample bottle with shaking until complete dissolution of the sample, which is transferred to 500 ml volumetric flask. The sample bottle is washed with pure water to ensure complete transfer of all samples into the volumetric flask. The volumetric flask is metered into calibration and shaken for homogeneity.
Preparation of sample solution (0.5 mg/ml anhydrous Cyclophosphamide): 25 ml of sample stock solution and 5.0 ml of internal control solution (precisely weighed 185 mg of ethyl p-hydroxybenzoate control is dissolved in 1000 ml volumetric flask, to which is added 250 ml of ethanol. After shaking for dissolution, pure water is used to meter to calibration with shaking) are charged in 50 ml volumetric flask, which is metered with pure water to calibration with shaking and then used for HPLC analysis.

[2] = Stability in 40° C./75% RH stability test chamber (CPP content); assay type: physicochemical; details: raw material
Procedure: The CPP freeze-dried composition hydrated for 16 h was placed in 40° C./75% RH stability test chamber, was sampled after 1 month and 3 months, and determined for CPP contents, which were compared with CPP monohydrate obtained by prior art hydrating process.
The CPP freeze-dried composition hydrated for 16 h was placed in 40° C./75% RH stability test chamber, sampled after 1 month and 3 months for determining CPP contents.

[3] = raw material
Procedure: The moisture content, CPP content and redissolving time were determined for CPP freeze-dried composition hydrated with saturated sodium chloride solution in the freeze-drying box, respectively. In addition, the CPP freeze-dried compositions hydrated for 16 h and 24 h were placed in 45° C. oven and sampled for determining CPP contents after 1 week and 2 weeks, respectively.
Moisture content, CPP content and redissolving time were determined for CPP freeze-dried composition hydrated with saturated sodium chloride solution in the dryer, respectively. In addition, the CPP freeze-dried composition hydrated for 16 h was placed in 45° C. oven, sampled after 1 week and 2 weeks, respectively and determined for CPP contents. The CPP freeze-dried composition hydrated for 16 h was placed in 40° C./75% RH stability test chamber, was sampled after 1 month and 3 months, and determined for CPP contents, which were compared with CPP monohydrate obtained by prior art hydrating process.
The moisture content, CPP content and redissolving time were determined for CPP freeze-dried composition hydrated with saturated potassium sulfate solution in the dryer, respectively. In addition, the CPP freeze-dried composition hydrated for 16 h was placed in 45° C. oven and was sampled for determining CPP contents after 1 week and 2 weeks, respectively. […]

[4] = Bulk density (USP <616> Method I); assay type: physicochemical; details: active ingredient; strength NA, hydration solution NA
Procedure: BD is calculated by the following formula: […]
W is the theoretical weight, g;
V0 is the macroscopic volume, mL.
V0 is calculated by the following formula: […]
D is the theoretical inside diameter, cm;

[5] = Tapped density (USP <616> Method I); assay type: physicochemical; details: active ingredient; strength NA, hydration solution NA
[6] = Skeletal density (gas pycnometer); assay type: physicochemical; details: active ingredient; strength NA, hydration solution NA
Procedure: Skeletal Density, also known as true density, is determined at room temperature by Gas Pycnometer (Micromeritics Accupyc II 1340). Skeletal density is calculated by the following formula: […]
V1 is the true volume of the test sample, measured by Gas Pycnometer, mL.

[7] = Porosity (calculated from bulk and skeletal density); assay type: physicochemical; details: active ingredient; strength NA, hydration solution NA
Procedure: The porosity is calculated with the macroscopic volume (V0) & true volume (V1) or the bulk density (ρ0) & skeletal density (ρ1) by the following formula: […]

[8] = Reconstitution time (0.9% sodium chloride injection, cyclotron 250 rpm); assay type: physicochemical; details: active ingredient
Procedure: Then the glass vial is placed on cyclotron (HY-5, Shanghai Suhao intelligent system Co. Ltd) which makes the glass vial oscillate at 250 rpm at room temperature to dissolve the active ingredient completely. The reconstitution time is recorded in Table 20.

[9] = assay type: physicochemical; details: air dispersion/dry model; hydration pressure 50 kPa
Procedure: The hydrated CPP freeze-dried composition is stirred by weighting scoop gently until flowable powder comes into being. Then 1-2 g test sample is added on injection plate. Test method and parameters are as follows:
It will be understood by a person of ordinary skill in the art that a common approach to defining the distribution width is to cite three values on the x-axis, the D10, D50, and D90. As used herein, the term “D50” refers to the median particle diameter, wherein half of the particle population has a diameter below such value. As used herein, the term “D90,” refers to the particle diameter wherein 90% of the particle population has a diameter below such value. As used herein, the term “D10,” refers to the particle diameter wherein 10% of the particle population has a diameter below such value.

[10] = general description; cited from earlier work

O=P1(N(CCCl)CCCl)NCCCO1 (stereo not drawn) [CPP monohydrate raw material, P-[N,N-bis(β-chloroethyl)]-1-oxa-3-aza-2-phosphocyclohexane-P-oxide]
CPP content % [1]: 99.6%
Stability-CPP content % 40° C./75% RH-1 month [2]: 98.9%
Stability-CPP content % 40° C./75% RH-3 month [2]: 86.1%
Stability-CPP content % 45° C.-1 week [3]: 106.1%
Stability-CPP content % 45° C.-2 week [3]: 101.8%

O=P1(N(CCCl)CCCl)NCCCO1 (stereo not drawn) [P-[N,N-bis(β-chloroethyl)]-1-oxa-3-aza-2-phosphocyclohexane-P-oxide]
Bulk Density [4]: 0.6246 g/mL
Tapped Density [5]: 0.9369 g/mL
Skeletal Density [6]: 1.4286 g/mL
Porosity [7]: 56.28%
Reconstitution time ([8]; strength 0.5 g): 8.7 min
Reconstitution time ([8]; strength 1 g): 11.2 min
Reconstitution time ([8]; strength 2 g): 16.4 min
D10 [9]: 5.6 μm
D50 [9]: 34.8 μm
D90 [9]: 262.0 μm
Solubility [10]: soluble in water, normal saline or ethanol
